Patent US20060063759A1, “Tricyclic steroid hormone nuclear receptor modulators” (priority 2002, published 2006)

target: T1, human MR (Homo sapiens, UniProt P08235); test: Mineralocorticoid Receptor Binding Assay ([3H]-aldosterone); conditions: [3H]-aldosterone binding, human MR expressed in Sf9 cells; read-out: MR Ki
T1 construct: The full length human MR gene is cloned from a human kidney or human brain cDNA library; His tag from the pAcHLT vector (own knowledge); made in house; host or cells: Sf9 insect cells (baculovirus, pAcHLT transfer vector)
T1 sequence (P08235 1-984): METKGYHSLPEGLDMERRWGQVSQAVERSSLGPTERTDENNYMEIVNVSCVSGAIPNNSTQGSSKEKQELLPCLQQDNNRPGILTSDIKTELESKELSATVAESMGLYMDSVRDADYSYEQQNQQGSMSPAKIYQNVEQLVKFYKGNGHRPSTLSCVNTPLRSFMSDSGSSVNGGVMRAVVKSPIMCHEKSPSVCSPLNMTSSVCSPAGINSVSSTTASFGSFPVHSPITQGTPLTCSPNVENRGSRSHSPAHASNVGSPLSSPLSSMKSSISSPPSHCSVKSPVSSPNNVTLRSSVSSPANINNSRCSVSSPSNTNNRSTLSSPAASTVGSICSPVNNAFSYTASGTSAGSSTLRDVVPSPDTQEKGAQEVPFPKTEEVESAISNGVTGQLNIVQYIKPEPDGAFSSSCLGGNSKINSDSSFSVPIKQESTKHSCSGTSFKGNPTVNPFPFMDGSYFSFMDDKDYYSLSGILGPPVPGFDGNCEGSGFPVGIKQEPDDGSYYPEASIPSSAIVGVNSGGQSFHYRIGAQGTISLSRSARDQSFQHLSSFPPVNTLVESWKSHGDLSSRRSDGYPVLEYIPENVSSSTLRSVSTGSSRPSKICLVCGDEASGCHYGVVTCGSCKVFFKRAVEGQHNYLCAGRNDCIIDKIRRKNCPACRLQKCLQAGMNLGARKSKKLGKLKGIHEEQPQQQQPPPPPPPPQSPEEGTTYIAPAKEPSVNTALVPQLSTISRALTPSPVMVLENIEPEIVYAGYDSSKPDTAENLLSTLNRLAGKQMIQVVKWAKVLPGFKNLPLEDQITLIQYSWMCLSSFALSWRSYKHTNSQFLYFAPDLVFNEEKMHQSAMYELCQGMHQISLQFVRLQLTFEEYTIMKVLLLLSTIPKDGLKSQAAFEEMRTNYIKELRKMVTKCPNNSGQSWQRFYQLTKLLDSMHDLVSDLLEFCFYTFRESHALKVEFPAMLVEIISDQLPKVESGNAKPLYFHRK
Protocol: All ligands, radioligands, solvents, and reagents employed in the binding assays are readily available from commercial sources, or can be readily synthesized by the ordinarily skilled artisan.
The full length human MR gene is cloned from a human kidney or human brain cDNA library. […] The PCR reaction is performed in a final volume of 50 μl containing about 1 μl of a 50× stock solution of polymerase; about 1 μl of a 50× stock solution of dNTP; about 5 μl of an appropriate PCR buffer; about 1 μl of each primer; about […] of a H. kidney or H. brain cDNA library; and about 36 μl of water. The reaction is allowed to denature for about 30 seconds at 95 degrees Celsius, anneal for about 30 seconds at 55 degrees Celsius, and extend for about 5 minutes at 72 degrees Celsius, the sequence being repeated for a total of about 35 cycles. […] To extract the cDNA product from the agarose gel, the QIAEX II Gel Extraction protocol (QIAGEN, Inc.) is employed according to the manufacturer's instructions. Following extraction, the MR cDNA is cloned into an appropriate cloning vector (Zero Blunt TOPO PCR Cloning Kit Invitrogen, Inc.) and a pAcHLT-baculovinis transfer vector (B.D./Pharminogen), then expressed in SF9 insect cells, essentially according to manufacturer's instructions. Sf9 cells are grown at a scale where gram quantity cell pellets are obtained for subsequent use in the MR binding assay. Harvested cell pellets are lysed by repeated freeze-thaw cycles (about 4) in a suitable lysis buffer then centrifuged at about 1×10^3 G (with the supernatant being saved for future assays).
MR binding assays are performed in a final total volume of about 250 μl containing about 20-25 μg of protein and 0.5 nM of [^3H]-aldosterone plus varying concentrations of test compound or vehicle. The assay binding buffer consists of 30 mM sodium molybdate, 30 mM of TRIS-HCl, 5 mM sodium phosphate, 5 mM sodium pyrophosphate, and about 10% glycerol, pH=7.5.
Incubations are carried out at 4 degrees Celsius with shaking for about 16 hours. 200 μl aliquots of each incubation are filtered onto Millipore HA 0.45 micron 96-well filter plates, pre-moistened with cold 30 mM TRIS-HCl. The filter plates are suctioned dry with vacuum and immediately washed 3× with cold 30 mM TRIS-HCl. The plates are then punched out and the amount of receptor-ligand complex is determined by liquid scintillation counting using 4 ml of Ready Protein Plus™ liquid scintillation cocktail.
IC50 values (defined as the concentration of test compound required to decrease [^3H]-aldosterone binding by 50%/o) are then determined.

Row | SMILES | Ki [nM]
1 | CC(C)S(=O)(=O)Nc1ccc(C=C2c3ccccc3CCc3ccccc32)cc1 [Example 107, Propane-2-sulfonic acid [4-(10,11-dihydro-dibenzo[a,d]cyclohepten-5-ylidenemethyl)-phenyl]-amide] | < 500
2 | COc1ccc2c(c1)CCc1cc(Cl)ccc1/C2=C\c1cccc(NS(C)(=O)=O)c1 [Example 425] | < 500
3 | COc1ccc2c(c1)CCc1cc(Cl)ccc1/C2=C/c1cccc(NS(C)(=O)=O)c1 [Example 426] | < 500
4 | CS(=O)(=O)Nc1cccc(/C=C2\c3ccc(F)cc3CCc3ncccc32)c1 [Example 486, (E)-N-[3-(8-fluoro-10,11-dihydro-benzo[4,5]cyclohepta[1,2-b]pyridin-5-ylidenemethyl)-phenyl]-methanesulfonamide] | < 500
5 | CC(=O)Nc1nc2c(s1)/C(=C\c1cccc(NS(C)(=O)=O)c1)c1ccccc1CC2 [Example 558] | < 500
6 | O=c1[nH]c2cc(/C=C3/c4ccc(F)cc4OCc4ncccc43)ccc2n1CCN1CCOCC1 [Example 618, (E)-5-(8-Fluoro-11H-10-oxa-1-aza-dibenzo[a,d]cyclohepten-5-ylidenemethyl)-1-(2-morpholin-4-yl-ethyl)-1,3-dihydro-benzoimidazol-2-one] | < 500
7 | O=c1[nH]c2ccc(/C=C3/c4ccc(F)cc4OCc4ncccc43)cc2[nH]1 [Example 625] | < 500
8 | O=c1[nH]c2ccc(CC3c4ccccc4COc4cc(F)ccc43)cc2[nH]1 (centres unmarked) [Example 645] | < 500
9 | O=c1[nH]c2cc(/C=C3\c4ccc(F)cc4OCc4ncsc43)ccc2n1CCN1CCOCC1 [Example 719] | < 500
10 | COCC(=C1c2ccccc2CCc2cc(Cl)ccc21)c1cccc(NS(C)(=O)=O)c1 [Example 756, N-{3-[1-(2-Chloro-10,11-dihydro-dibenzo[a,d]cyclohepten-5-ylidene)-2-methoxy-ethyl]-phenyl}-methanesulfonamide] | < 500
11 | C/C(=C1\c2ccccc2CCc2cc(C)ccc21)c1cccc(NS(C)(=O)=O)c1 [Example 781] | < 500
12 | C/C(=C1/c2ccccc2CCc2cc(C)ccc21)c1cccc(NS(C)(=O)=O)c1 [Example 782] | < 500
13 | CCOc1ccc2c(c1)OCc1ccccc1/C2=C(\C)c1cccc(NS(C)(=O)=O)c1 [Example 815] | < 500
14 | CCCCOc1ccc2c(c1)OCc1ccccc1/C2=C(/C)c1cccc(NS(C)(=O)=O)c1 [Example 816] | < 500
15 | C/C(=C1\c2ccccc2CCc2cc(OCC3CC3)ccc21)c1cccc(NS(C)(=O)=O)c1 [Example 825] | < 500
16 | C/C(=C1/c2ccccc2CCc2cc(OCC3CC3)ccc21)c1cccc(NS(C)(=O)=O)c1 [Example 826] | < 500

Continued, values first:

Row | Ki [nM] | SMILES
17 | < 500 | CSc1cccc(C=C2c3ccccc3CCc3ccccc32)c1 [Example 278, 5-(3-Methylsulfanyl-benzylidene)-10,11-dihydro-5H-dibenzo[a,d]cycloheptene]
18 | < 500 | Cc1cccc2c1/C(=C/c1cccc(NS(C)(=O)=O)c1)c1ccccc1CC2 [Example 313]
19 | < 1000 | CS(=O)(=O)Nc1ccc2c(c1)CCc1ccccc1/C2=C/c1cccc(O)c1 [Example 337]
20 | < 500 | CS(=O)(=O)Nc1cccc(/C=C2/c3ccccc3CCc3cc(F)ccc32)c1 [Example 354]
21 | < 500 | CS(=O)(=O)Nc1cccc(C=C2c3ccccc3CCc3ccsc32)c1 [Example 493]
22 | < 1000 | CS(=O)(=O)Nc1cccc(/C=C2/c3ccccc3CCc3ccncc32)c1 [Example 513]
23 | < 500 | O=[N+]([O-])c1cccc(/C=C2/c3ccccc3OCc3c(Cl)cccc32)c1 [Example 621]
24 | < 500 | Cc1ccc2c(c1)/C(=C/c1cccc(NS(C)(=O)=O)c1)c1ccccc1CO2 [Example 678]
25 | < 500 | CS(=O)(=O)Nc1cccc(C=C2c3ccccc3CSc3c(Cl)cc(Cl)cc32)c1 [Example 697]
26 | < 500 | Cn1c(=O)n(C)c2cc(/C=C3\c4ccccc4COc4cc(F)ccc43)ccc21 [Example 717]
27 | < 500 | CS(=O)(=O)Nc1cccc(C=C2c3ccccc3CSc3c(Cl)cccc32)c1 [Example 720]
28 | < 500 | C/C(=C1\c2ccccc2COc2cc(Cl)ccc21)c1cccc(NS(C)(=O)=O)c1 [Example 791]
29 | < 500 | C/C(=C1/c2ccccc2COc2cc(Cl)ccc21)c1cccc(NS(C)(=O)=O)c1 [Example 792]
